PMC4335062, “Data-Driven Prediction and Design of bZIP Coiled-Coil Interactions” (PLoS Computational Biology, 2015)
Read-outs that look alike come from different tables or passages of the source. One block for each sequence: values may come before it. Where no end group is shown, it is not given here.

Key:
Test in all cases: Direct-binding FRET assay
[1] = biological target: BACH1 (Homo sapiens, UniProt O14867); set-up: made in house; conditions: read-out: Kd
Description: (§1) The direct binding assay was performed manually in 384-well plates and is similar to a previously described assay. Wells were filled with 20 μL of 1 mM TCEP-HCl. A 4 μM stock of acceptor protein was made fresh in 1 mM TCEP-HCl, and 20 μL was titrated in 2-fold dilutions over the wells. […] The direct-binding FRET data were fit as previously described. Briefly, the Kd of the designed peptide homodimer was experimentally determined and used with previously determined target homodimer Kd values to determine the heterodimer Kd. The homodimer Kd values used for the human bZIPs were from; experiments done by […] et al. used the same protein constructs for the human bZIP proteins, the same buffer conditions, and the same assay. The fitting used a system of ordinary differential equations to describe the concentrations of homo and heterodimers formed by the donor (D) and acceptor (A) as a function of the heterodimer Kd. MATLAB was used to simulate the binding experiment for different Kd values, and the value that gave the best agreement between simulation and experiment was assigned. A minimum 15% change in the donor fluorescence upon titrating the acceptor peptide from 0 to 1000 nM was required for a fit to be attempted. If this minimum was not met, the interaction was classified as “NS” for no signal change. […] These interactions were marked “AS” to indicate anomalous signal. We attributed this to interactions between the peptides, the dyes and the walls of the assay plates at low concentrations. These curves could not be fit, given their unusual shapes at low concentrations of acceptor. For such curves, we removed the first five points and re-fit the data. […] One example of this is increasing concentrations of acceptor causing an increase in donor fluorescence.

[2] = biological target: NFE2L1 (Homo sapiens, UniProt Q14494); set-up: made in house; conditions: read-out: Kd
Chain of NFE2L1 (Q14494 654-717 limits assumed): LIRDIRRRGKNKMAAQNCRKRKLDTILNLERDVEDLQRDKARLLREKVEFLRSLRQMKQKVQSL
Description: as §1

[3] = biological target: MAF (Homo sapiens, UniProt O75444); set-up: made in house; conditions: read-out: Kd
Description: as §1

[4] = biological target: ATF6 (Homo sapiens, UniProt P18850); set-up: made in house; conditions: read-out: Kd
Chain of ATF6 (P18850 306-369 limits assumed): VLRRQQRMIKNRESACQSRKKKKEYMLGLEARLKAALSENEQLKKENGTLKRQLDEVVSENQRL
Description: as §1

[5] = biological target: MAFB (Homo sapiens, UniProt Q9Y5Q3); set-up: made in house; conditions: read-out: Kd
Description: as §1

[6] = biological target: BACH2 (Homo sapiens, UniProt Q9BYV9); set-up: made in house; conditions: read-out: Kd
Chain of BACH2 (Q9BYV9 646-709 limits assumed): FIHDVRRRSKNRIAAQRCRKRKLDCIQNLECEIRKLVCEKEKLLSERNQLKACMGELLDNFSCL
Description: as §1

[7] = biological target: T1, CREB3L1 (Homo sapiens, UniProt Q96BA8); conditions: read-out: Kd
T1 construct: made in house
T1 sequence (Q96BA8 290-353 limits assumed): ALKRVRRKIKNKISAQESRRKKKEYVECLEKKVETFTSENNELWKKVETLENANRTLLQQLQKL
Description: as §1

[8] = biological target: T2, BATF2 (Homo sapiens, UniProt Q8N1L9); conditions: mean or single, read-out: Kd
T2 construct: made in house
T2 sequence (Q8N1L9 17-80 limits assumed): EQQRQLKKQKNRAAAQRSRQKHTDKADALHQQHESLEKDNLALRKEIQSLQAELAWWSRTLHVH
Description: as §1

[9] = biological target: T3, CREB3L3 (Homo sapiens, UniProt Q68CJ9); conditions: mean or single, read-out: Kd
T3 construct: made in house
T3 sequence (Q68CJ9 243-306 limits assumed): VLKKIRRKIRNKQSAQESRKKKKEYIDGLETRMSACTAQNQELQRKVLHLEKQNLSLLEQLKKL
Description: as §1

[10] = biological target: T4, NFE2L2 (Homo sapiens, UniProt Q16236); conditions: read-out: Kd
T4 construct: made in house
T4 sequence (Q16236 497-560 limits assumed): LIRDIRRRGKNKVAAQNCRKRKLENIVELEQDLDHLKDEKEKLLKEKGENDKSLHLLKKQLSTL
Description: as §1

[11] = biological target: T5, CREB3 (Homo sapiens, UniProt O43889); conditions: mean or single, read-out: Kd
T5 construct: made in house
T5 sequence (O43889 150-213 limits assumed): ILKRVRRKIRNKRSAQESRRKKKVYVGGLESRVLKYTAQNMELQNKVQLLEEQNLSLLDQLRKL
Description: as §1

[12] = 4°C, C-terminal fluorescein design as donor, TAMRA target titrated
[13] = 4°C, C-terminal rhodamine design, mean or single
[14] = 4°C, N-terminal rhodamine design, mean or single
[15] = 23°C, C-terminal fluorescein design as donor, TAMRA target titrated
[16] = 23°C, C-terminal rhodamine design, mean or single
[17] = 23°C, N-terminal rhodamine design, mean or single
[18] = 37°C, C-terminal fluorescein design as donor, TAMRA target titrated
[19] = 37°C, C-terminal rhodamine design, mean or single
[20] = 37°C, N-terminal rhodamine design, mean or single
[21] = 4°C, C-terminal rhodamine design
[22] = 4°C, N-terminal rhodamine design
[23] = 23°C, C-terminal rhodamine design
[24] = 23°C, N-terminal rhodamine design
[25] = 37°C, C-terminal rhodamine design
[26] = 37°C, N-terminal rhodamine design

- Kd [1, 12]: > 1 µM
- Kd [1, 13]: > 1 µM
- Kd [1, 14]: > 5 µM
- Kd [1, 15]: > 1 µM
- Kd [1, 16]: > 1 µM
- Kd [1, 17]: > 1 µM
- Kd [1, 18]: > 1 µM
- Kd [1, 19]: > 1 µM
- Kd [1, 20]: > 1 µM
- Kd [2, 12]: > 1 µM
- Kd [2, 13]: > 1 µM
- Kd [2, 14]: > 1 µM
- Kd [2, 15]: > 1 µM
- Kd [2, 16]: > 1 µM
- Kd [2, 17]: > 1 µM
- Kd [2, 18]: > 1 µM
- Kd [2, 19]: > 1 µM
- Kd [2, 20]: > 1 µM
- Kd [3, 12]: > 1 µM
- Kd [3, 13]: > 1 µM
- Kd [3, 14]: > 1 µM
- Kd [3, 15]: > 1 µM
- Kd [3, 16]: > 1 µM
- Kd [3, 17]: > 1 µM
- Kd [3, 18]: > 1 µM
- Kd [3, 19]: > 1 µM
- Kd [3, 20]: > 1 µM
- Kd [4, 12]: > 5 µM
- Kd [4, 15]: > 1 µM
- Kd [4, 17]: > 1 µM
- Kd [4, 18]: > 1 µM
- Kd [4, 19]: > 5 µM
- Kd ([4]; 37°C, C-terminal rhodamine design, repeat 1): > 5 µM
- Kd ([4]; 37°C, C-terminal rhodamine design, repeat 2): > 5 µM
- Kd ([4]; 37°C, C-terminal rhodamine design, repeat 3): > 5 µM
- Kd [4, 20]: > 1 µM
- Kd [5, 12]: > 1 µM
- Kd [5, 13]: > 5 µM
- Kd [5, 14]: > 1 µM
- Kd [5, 15]: > 1 µM
- Kd [5, 16]: > 5 µM
- Kd [5, 17]: > 1 µM
- Kd [5, 18]: > 1 µM
- Kd [5, 19]: > 5 µM
- Kd [5, 20]: > 1 µM
- Kd [6, 12]: > 1 µM
- Kd [6, 13]: > 1 µM
- Kd [6, 14]: > 1 µM
- Kd [6, 15]: > 1 µM
- Kd [6, 16]: > 1 µM
- Kd [6, 17]: > 1 µM
- Kd [6, 18]: > 1 µM
- Kd [6, 19]: > 1 µM
- Kd [6, 20]: > 1 µM
- Kd [7, 12]: > 1 µM
- Kd [7, 13]: > 1 µM
- Kd [7, 14]: > 1 µM
- Kd [7, 15]: > 1 µM
- Kd [7, 16]: > 1 µM
- Kd [7, 17]: > 1 µM
- Kd [7, 18]: > 1 µM
- Kd [7, 19]: > 1 µM
- Kd [7, 20]: > 1 µM
- Kd [8, 21]: < 0.2 µM
- Kd [8, 22]: > 1 µM
- Kd [8, 23]: > 1 µM
- Kd [8, 24]: > 1 µM
- Kd [8, 25]: > 1 µM
- Kd [8, 26]: > 1 µM
- Kd [9, 21]: > 1 µM
- Kd [9, 22]: > 1 µM
- Kd [9, 23]: > 1 µM
- Kd [9, 24]: > 1 µM
- Kd [9, 25]: > 1 µM
- Kd [9, 26]: > 1 µM
- Kd [10, 12]: > 1 µM
- Kd [10, 13]: > 1 µM
- Kd [10, 14]: > 1 µM
- Kd [10, 15]: > 1 µM
- Kd [10, 16]: > 1 µM
- Kd [10, 17]: > 1 µM
- Kd [10, 18]: > 1 µM
- Kd [10, 19]: > 1 µM
- Kd [10, 20]: > 1 µM
- Kd [11, 21]: > 1 µM
- Kd [11, 22]: > 1 µM
- Kd [11, 23]: > 1 µM
- Kd [11, 24]: > 1 µM
- Kd [11, 25]: > 1 µM
- Kd [11, 26]: > 1 µM
Sequence: EREAQLENRVAHLKEKNQELKAQNLHLKEALSEAQNRNQELKNDA [XBP1-d1]

- Kd [1, 13]: > 1 µM
- Kd [1, 14]: > 5 µM
- Kd [1, 16]: > 1 µM
- Kd [1, 17]: > 5 µM
- Kd [1, 19]: > 5 µM
- Kd [1, 20]: > 1 µM
- Kd [2, 13]: > 5 µM
- Kd [2, 14]: > 1 µM
- Kd [2, 16]: > 5 µM
- Kd [2, 17]: > 1 µM
- Kd [2, 19]: > 5 µM
- Kd [2, 20]: > 1 µM
- Kd [3, 13]: 0.79 µM
- Kd [3, 14]: > 5 µM
- Kd [3, 16]: > 5 µM
- Kd [3, 17]: > 5 µM
- Kd [3, 19]: > 1 µM
- Kd [4, 13]: > 5 µM
- Kd [4, 14]: > 5 µM
- Kd [4, 16]: > 1 µM
- Kd [4, 17]: > 5 µM
- Kd [4, 19]: > 1 µM
- Kd [4, 20]: > 5 µM
- Kd [5, 13]: 0.725 µM
- Kd [5, 14]: > 5 µM
- Kd [5, 16]: > 5 µM
- Kd [5, 19]: > 1 µM
- Kd [5, 20]: > 5 µM
- Kd [6, 13]: > 5 µM
- Kd [6, 14]: > 1 µM
- Kd [6, 16]: > 5 µM
- Kd [6, 17]: > 5 µM
- Kd [6, 19]: > 5 µM
- Kd [6, 20]: > 5 µM
- Kd [7, 13]: 0.158 µM
- Kd [7, 14]: > 5 µM
- Kd [7, 16]: 0.529 µM
- Kd [7, 17]: > 5 µM
- Kd [7, 20]: > 1 µM
- Kd [8, 21]: 0.591 µM
- Kd [8, 22]: 0.076 µM
- Kd [8, 23]: > 5 µM
- Kd [8, 24]: 0.509 µM
- Kd [8, 25]: > 1 µM
- Kd [8, 26]: > 5 µM
- Kd [9, 21]: 0.23 µM
- Kd [9, 22]: > 5 µM
- Kd [9, 23]: 0.414 µM
- Kd [9, 24]: > 5 µM
- Kd [9, 25]: 0.657 µM
- Kd [9, 26]: > 1 µM
- Kd [10, 13]: > 5 µM
- Kd [10, 14]: > 1 µM
- Kd [10, 16]: > 1 µM
- Kd [10, 17]: > 1 µM
- Kd [10, 19]: > 5 µM
- Kd [10, 20]: > 1 µM
- Kd [11, 21]: 0.147 µM
- Kd [11, 22]: > 1 µM
- Kd [11, 23]: > 5 µM
- Kd [11, 24]: > 1 µM
- Kd [11, 25]: 0.2 to 1 µM
- Kd [11, 26]: > 1 µM
Sequence: KRIAYLRQRIAELRNENHVLESRIQRMEKEKDALQQDRDHLEYEL [ATF5-d1]
